As usually defined, the EC50 is the concentration needed to bring the measured effect to its halfway point. As a reminder, the MIC is the least concentration at which growth counts as inhibited.

For one series, the system named is Skin epidermis. As to the kind of experiment: Reduction of trans epithelial electrical resistance in human reconstituted epidermis after 15 mins of topical exposure followed by 42 hrs of recovery. The series is classed as functional.
In series [1] the test system is Radical scavenging activity. Description: Antioxidant activity assessed as DPPH radical scavenging activity. It is filed as functional. In general terms: The DPPH test is a chemical assay of radical scavenging.
Series [2] in a line: Cytotoxicity against human reconstituted epidermal cells at 17.1 mM after 15 mins of topical exposure followed by 42 hrs of recovery by MTT assay. The conditions noted are these: 0.25 h, 17100 µM. It is filed as cell-based.
Another series deals with Homo sapiens. As to the kind of experiment: Antiinflammatory activity against reconstituted human epidermis model assessed as inhibition of IL1-alpha release measured after 15 mins of topical exposure followed by 42 hrs of recovery by ELISA. The series is classed as functional. The conditions noted are these: Skin epidermis. For orientation: In an ELISA, binding on a coated surface is turned into a signal by an enzyme label.

For series [3], the system named is Staphylococcus aureus. As to the kind of experiment: Antimicrobial activity against Staphylococcus aureus ATCC 6538 after 48 hrs by broth dilution method. The series is classed as functional. To be noted: ATCC 6538, 48 h.
Series [4] has as its system Staphylococcus aureus. As to the kind of experiment: Antimicrobial activity against Staphylococcus aureus ATCC 6538 after 24 hrs by broth dilution method. It is filed as functional. To be noted: ATCC 6538, 24 h. (In general: Broth dilution looks for growth in wells or tubes with falling amounts of substance.)
The subject of series [5] is Staphylococcus epidermidis. Description: Antimicrobial activity against Staphylococcus epidermidis ATCC 12228 after 48 hrs by broth dilution method. The series is classed as functional. To be noted: ATCC 12228, 48 h.
The subject of series [6] is Escherichia coli. Description: Antimicrobial activity against Escherichia coli ATCC 8739 after 48 hrs by broth dilution method. It is filed as functional, organism-based.
The subject of series [7] is Escherichia coli. Description: Antimicrobial activity against Escherichia coli ATCC 8739 after 24 hrs by broth dilution method. The series is classed as functional, organism-based.
The test system of series [8] is Candida albicans. Description: Antimicrobial activity against Candida albicans ATCC 10231 after 5 days by broth dilution method. The series is classed as functional, organism-based.
Series [9] has as its system Aspergillus niger. Description: Antimicrobial activity against Aspergillus niger ATCC 16404 after 5 days by broth dilution method. It is filed as functional, organism-based.
Series [10] concerns Aspergillus niger. Description: Antimicrobial activity against Aspergillus niger ATCC 16404 after 24 hrs by broth dilution method. The series is classed as functional. The conditions noted are these: ATCC 16404, 24 h.
Series [11] has as its system Pseudomonas aeruginosa. Description: Antimicrobial activity against Pseudomonas aeruginosa ATCC 9027 after 24 hrs by broth dilution method. It is filed as functional. To be noted: ATCC 9027, 24 h.
Series [12] deals with Pseudomonas aeruginosa. As to the kind of experiment: Antimicrobial activity against Pseudomonas aeruginosa ATCC 9027 after 48 hrs by broth dilution method. The series is classed as functional. To be noted: ATCC 9027, 48 h.
Series [13] has as its system Bacillus spizizenii. Description: Antimicrobial activity against Bacillus spizizenii ATCC 6633 after 24 hrs by broth dilution method. The series is classed as functional.
In series [14] the test system is Candida albicans. Description: Antimicrobial activity against Candida albicans ATCC 10231 after 24 hrs by broth dilution method. The series is classed as functional. The conditions noted are these: ATCC 10231, 24 h.
The test system of series [15] is Staphylococcus epidermidis. As to the kind of experiment: Antimicrobial activity against Staphylococcus epidermidis ATCC 12228 after 24 hrs by broth dilution method. The series is classed as functional. To be noted: ATCC 12228, 24 h.
Series [16] concerns Bacillus spizizenii. Description: Antimicrobial activity against Bacillus spizizenii ATCC 6633 after 48 hrs by broth dilution method. The conditions noted are these: ATCC 6633, 48 h. The series is classed as functional.

≈ marks a conversion by molar mass, not a printed value. Calls of active or inactive are those of the source. The rule behind the calls is not given here.

On to `C[C@@H]1CC[C@]2(C(=O)O)CC[C@]3(C)C(=CC[C@@H]4[C@@]5(C)C[C@@H](O)[C@H](O)[C@@](C)(COS(=O)(=O)O)[C@@H]5CC[C@]43C)[C@@H]2[C@]1(C)O`, for which the Activity result in the series on Skin epidermis is “Non-toxic”; in series [2], over 75%; in the series with Homo sapiens, “Non-toxic”. For the same compound, the outcome in [1] was inactive.
Turning to `C[C@@H]1CC[C@]2(C(=O)O[C@@H]3O[C@H](CO)[C@@H](O)[C@H](O)[C@H]3O)CC[C@]3(C)C(=CC[C@@H]4[C@@]5(C)C[C@@H](O)[C@H](O)[C@@](C)(COS(=O)(=O)O)[C@@H]5CC[C@]43C)[C@@H]2[C@]1(C)O`, in series [1], the result was inactive.
With `O=C(O)/C=C/c1ccc(O)c(O)c1` [CAFFEIC ACID], the EC50 in series [1] was 17.8 µM.
For the compound `O=C(/C=C/c1ccc(O)c(O)c1)O[C@H](Cc1ccc(O)c(O)c1)C(=O)O` [ROSMARINIC ACID], the MBC in the series on Staphylococcus aureus [3] came out at 120 µg/mL (≈ 0.333 mM); in [5], 1000 µg/mL (≈ 2.78 mM); in the series on Pseudomonas aeruginosa [12], 4000 µg/mL (≈ 11.1 mM); against Bacillus spizizenii [16], 4000 µg/mL (≈ 11.1 mM). Further, the MIC was 120 µg/mL (≈ 0.333 mM) with Staphylococcus aureus [4]; 4000 µg/mL (≈ 11.1 mM) against Aspergillus niger [10]; 2000 µg/mL (≈ 5.55 mM) in the series on Pseudomonas aeruginosa [11]; 4000 µg/mL (≈ 11.1 mM) in the series on Bacillus spizizenii [13]; 2000 µg/mL (≈ 5.55 mM) in the series on Candida albicans [14]; 120 µg/mL (≈ 0.333 mM) in series [15]. The MBC result with Escherichia coli [6], with Candida albicans [8] and in the series with Aspergillus niger [9] was “inactive” throughout. In addition, the MIC entry in the series on Escherichia coli [7] is “inactive”. The 50% effective concentration (EC50) in series [1] turned out to be 8 µM.

The values above are taken from ChEMBL document CHEMBL1154213, “Composition of the fresh leaves and stems of Melissa officinalis and evaluation of skin irritation in a reconstituted human epidermis model” (J Nat Prod, 2009).
